Tests used:
[1] = Six-week double-blind clinical evaluation for the treatment of red and brown pigmented skin; assay type: in vivo, human; conditions: 0.5% in vehicle, twice a day to facial area for 6 weeks; expert grading of Canfield VISIA-CR RBX images; women ages 40-70
Procedure: A six-week double-blind clinical evaluation was performed, comparing a control vehicle to idebenone dipalmitoyl glycerate for the treatment of red and brown pigmented skin. Approximately 36 women, ages 40-70 with moderate hyperpigmentation and reddening of the skin were selected to participate in the study. Subjects were randomly assigned to one of three groups. Group I received a product with no idebenone active ingredient (vehicle), Group II received the same vehicle with 0.5% Idebenone (Hydroxydecyl Ubiquinone) added, and Group III received the same vehicle with 0.5% of Idebenone Dipalmitoyl Glycerate added. Subjects were instructed to apply the product twice a day (morning and evening) to the facial area for 6 weeks. Canfield VISIA-CR RBX images were made at baseline and after 6 weeks use and analyzed. Digital and UV photographs were also taken, standardizing distance and positioning of the subjects, pre and post product application.

[2] = Maximization Test (repeat insult patch test) for contact-sensitizing potential; assay type: in vivo, human; conditions: Vehicle+1% test substance, occlusive patch, 5 induction exposures with SLS pre-treatment, single challenge; graded 48 or 72 hours after application of challenge patches; healthy adult volunteers
Procedure: A study was performed to evaluate the contact-sensitizing potential of a topical Facial Cream containing idebenone dipalmitoyl glycerate (Vehicle+1% idebenone dipalmitoyl glycerate) using the Maximization Test. The test was a repeat insult patch test wherein the test material was applied under an occlusive dressing to the upper outer arm, volar forearm or back repeatedly to the same site for five 48-hour induction periods, followed 10-14 days later by a single challenge to a naive skin site. The test sample was coded Cream A and tested as supplied viz. neat. All test materials were stored under ambient conditions in an inaccessible location under the supervision of the investigator.
The test subjects were all healthy, adult volunteers over the age of 18 years. […]

Row | Molecule | subjects responded with a decrease in brown pigmentation [1] | subjects responded with less redness [1] | subjects with contact allergy / positive reaction (recordable level of skin sensitization) after challenge [2]
1 | 3-oxo-3-(9-(2,4,5-trimethyl-3,6-dioxocyclohexa-1,4-dienyl)monyloxy)propane-1,2-diyl dipalmitate [idebenone dipalmitoyl glycerate] | 75% | 58% | –
2 | COC1=C(OC)C(=O)C(CCCCCCCCCCOP(=O)(O)O)=C(C)C1=O [idebenone phosphate ester] | – | – | Four subjects exhibited positive reactions
3 | COC1=C(OC)C(=O)C(CCCCCCCCCCO)=C(C)C1=O [idebenone, 6-(10-hydroxydecyl)-2,3-dimethoxy-5-methyl-1,4-benzoquinone] | 67% | 58% | –

Reference: patent US9290436B2, “Compositions containing carboxylic acid-substituted derivatives” (Elizabeth Arden, Inc., priority 2008, dated 2016)
